Active and inactive are the calls of the source.
Key:
[1] = Glucagon-like peptide 1 release potency, NCI-H716 cell line, dose-response, half-maximal inhibitory concentration (AID 1117344); format: functional, cell-based
[2] = half-maximal inhibitory concentration for glucagon-like peptide-1 release, STC-1 cell line, dose-response (AID 1117345); format: functional, cell-based
[3] = biological target: T1, Small ubiquitin-related modifier 1 (Homo sapiens, UniProt P63165); assay: inhibitors of SUMO1 peptide binding, dose response, biochemical, fluorescence polarization, uHTS hits (AID 624382); format: functional; conditions: read-out: IC50_Mean
[4] = biological target: T1, Small ubiquitin-related modifier 1; assay: inhibitors of SUMO1 partner interactions, dose response, biochemical, FRET (AID 624383); format: functional; conditions: read-out: IC50_Mean
[5] = biological target: T2, Small ubiquitin-related modifier 2 (Homo sapiens, UniProt P61956); assay: inhibitors of SUMO2 protein-protein interaction, dose response, selectivity assay for SUMO1 interaction inhibitor project, biochemical, FRET, human SUMO2, uHTS hits (AID 624384); format: functional; conditions: read-out: IC50_Mean
[6] = biological target: T2, Small ubiquitin-related modifier 2; assay: SUMO2–SIM peptide binding inhibitors, dose response, selectivity assay for SUMO1 interaction inhibitor project, biochemical, fluorescence polarization, uHTS hits (AID 624385); format: functional; conditions: read-out: IC50_Mean
[7] = biological target: T3, Probable nicotinate-nucleotide adenylyltransferase (Staphylococcus aureus (strain N315), UniProt P65502); format: functional, Staphylococcus aureus subsp. aureus N315;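 on IC50 Mean: confirmatory dose-response retesting of NadD inhibitor hits first found in an ultra-high-throughput screen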
[8] = biological target: T3, Probable nicotinate-nucleotide adenylyltransferase; format: functional, Staphylococcus aureus subsp. aureus N315; conditions: read-out: IC50_Mean
[9] = biological target: T4, Sentrin-specific protease 8 (Homo sapiens, UniProt Q96LD8); format: functional
T4 sequence (Q96LD8 whole entry): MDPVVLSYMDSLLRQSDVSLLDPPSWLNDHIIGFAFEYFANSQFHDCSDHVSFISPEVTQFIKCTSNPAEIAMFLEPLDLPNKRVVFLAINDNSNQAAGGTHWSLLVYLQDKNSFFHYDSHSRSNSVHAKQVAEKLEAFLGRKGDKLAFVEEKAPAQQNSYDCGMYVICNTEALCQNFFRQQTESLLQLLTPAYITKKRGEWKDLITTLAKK

[10] = biological target: T5, Replicative DNA helicase DnaB (Mycobacterium tuberculosis, UniProt P9WMR3); assay: DnaB intein splicing inhibitors, dose response, biochemical, cell-free fluorescence (AID 449749); format: functional
T5 sequence (P9WMR3 whole entry): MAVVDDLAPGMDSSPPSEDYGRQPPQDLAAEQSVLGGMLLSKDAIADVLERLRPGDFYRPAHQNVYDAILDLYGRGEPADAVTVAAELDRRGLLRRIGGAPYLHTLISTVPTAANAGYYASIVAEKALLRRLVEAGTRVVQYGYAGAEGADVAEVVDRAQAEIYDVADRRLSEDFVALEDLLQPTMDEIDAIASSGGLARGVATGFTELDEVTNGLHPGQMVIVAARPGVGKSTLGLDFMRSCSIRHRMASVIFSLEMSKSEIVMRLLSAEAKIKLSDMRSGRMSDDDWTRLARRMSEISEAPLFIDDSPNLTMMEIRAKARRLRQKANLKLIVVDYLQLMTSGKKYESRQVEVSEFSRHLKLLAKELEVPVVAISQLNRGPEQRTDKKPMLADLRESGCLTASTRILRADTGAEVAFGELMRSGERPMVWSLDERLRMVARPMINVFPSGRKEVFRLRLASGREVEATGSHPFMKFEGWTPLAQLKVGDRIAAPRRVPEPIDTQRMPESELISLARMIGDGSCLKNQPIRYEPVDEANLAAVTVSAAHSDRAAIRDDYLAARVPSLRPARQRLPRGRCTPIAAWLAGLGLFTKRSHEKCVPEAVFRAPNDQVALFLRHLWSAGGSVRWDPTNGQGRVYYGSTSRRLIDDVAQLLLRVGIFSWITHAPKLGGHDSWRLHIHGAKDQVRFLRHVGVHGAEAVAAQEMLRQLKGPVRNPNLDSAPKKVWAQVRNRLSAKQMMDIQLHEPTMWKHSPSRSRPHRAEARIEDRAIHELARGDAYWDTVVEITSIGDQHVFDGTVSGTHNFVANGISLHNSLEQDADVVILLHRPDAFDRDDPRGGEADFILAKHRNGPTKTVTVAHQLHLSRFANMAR

[11] = biological target: T4, Sentrin-specific protease 8; format: functional; remark: listed apart in the source
[12] = biological target: T6, Protein RecA (Mycobacterium tuberculosis, UniProt P9WHJ3); assay: Fluorescence Cell-Free Homogeneous Dose Retest to Identify Inhibitors of RecA-Intein Splicing Activity. [Related pubchem assays (depositor defined):AID2097, AID2223, AID489010, AID492950]; format: functional
T6 sequence (P9WHJ3 whole entry): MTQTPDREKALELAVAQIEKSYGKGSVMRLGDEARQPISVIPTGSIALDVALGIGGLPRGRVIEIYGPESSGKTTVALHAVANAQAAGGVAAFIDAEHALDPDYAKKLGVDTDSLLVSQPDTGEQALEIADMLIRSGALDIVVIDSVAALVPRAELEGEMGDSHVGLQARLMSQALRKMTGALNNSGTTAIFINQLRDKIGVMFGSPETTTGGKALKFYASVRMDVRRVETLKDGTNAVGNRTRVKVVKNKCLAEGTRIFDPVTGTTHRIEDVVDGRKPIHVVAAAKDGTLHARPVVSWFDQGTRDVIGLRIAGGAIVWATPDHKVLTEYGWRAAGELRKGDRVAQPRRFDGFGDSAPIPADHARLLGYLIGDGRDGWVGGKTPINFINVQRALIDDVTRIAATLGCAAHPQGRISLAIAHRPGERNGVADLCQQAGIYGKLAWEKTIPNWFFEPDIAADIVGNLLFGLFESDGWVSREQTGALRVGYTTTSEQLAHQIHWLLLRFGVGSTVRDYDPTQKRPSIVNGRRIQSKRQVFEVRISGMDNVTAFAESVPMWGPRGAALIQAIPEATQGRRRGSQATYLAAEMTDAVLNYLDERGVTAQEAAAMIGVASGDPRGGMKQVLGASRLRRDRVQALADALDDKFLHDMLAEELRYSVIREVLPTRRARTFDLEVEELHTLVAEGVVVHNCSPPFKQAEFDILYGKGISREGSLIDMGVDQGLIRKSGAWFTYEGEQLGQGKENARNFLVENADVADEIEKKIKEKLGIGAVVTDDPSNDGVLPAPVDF

T3 sequence (P65502 whole entry): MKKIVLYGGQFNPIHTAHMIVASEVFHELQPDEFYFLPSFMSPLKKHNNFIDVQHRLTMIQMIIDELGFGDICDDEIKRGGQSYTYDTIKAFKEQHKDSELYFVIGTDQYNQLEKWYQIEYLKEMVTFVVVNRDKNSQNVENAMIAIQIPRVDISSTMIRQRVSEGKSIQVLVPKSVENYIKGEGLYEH
T2 sequence (P61956 whole entry): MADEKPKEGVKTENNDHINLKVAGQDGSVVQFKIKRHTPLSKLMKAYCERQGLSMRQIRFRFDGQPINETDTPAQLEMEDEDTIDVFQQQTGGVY
T1 sequence (P63165 whole entry): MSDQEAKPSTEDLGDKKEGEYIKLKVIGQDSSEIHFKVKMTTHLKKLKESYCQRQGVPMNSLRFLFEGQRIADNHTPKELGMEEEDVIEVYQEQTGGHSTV

Q: With `[O-][S+](c1cc(Cl)cc(Cl)c1O)c1cc(Cl)cc(Cl)c1O` [BITHIONOLOXIDE] as the compound, how does the IC50 [1] read?
A: 19.7 µM (inactive)

Q: What about the IC50 [2] of the same compound?
A: > 40 µM (inactive)

Q: What about the IC50 [3] of the same compound?
A: 0.876 µM (active)

Q: And the IC50 [4]?
A: 9.66 µM (active)

Q: And the IC50 [5]?
A: 43.3 µM (inactive)

Q: And the IC50 [6]?
A: 3.55 µM (active)

Q: What does the source list for `N#Cc1c(SCc2c(Cl)cccc2Cl)nc(N)[nH]c1=S`?
A: IC50 [7]: 13 µM (active); IC50 [8]: 32.9 µM (active)

Q: Which IC50 [9] does the source give for `O=C1C2=[N+]([O-])C3CCCCC3[N+]([O-])=C2c2ccccc21` (configuration not stated) here?
A: 2.98 µM (active)

Q: What about the AC50 [10] of the same compound?
A: 6.38 µM (active)

Q: What about the IC50 [11] of the same compound?
A: 9.46 µM (active)

Q: What about the EC50 [12] of the same compound?
A: 9.54 µM (active)
